Results as given in patent US20240100044A1, “HYDROGEL COMPOSITION AND USES THEREOF IN THE PREVENTION AND/OR TREATMENT OF SKIN DAMAGE CAUSED BY RADIATION” (TARIAN PHARMA, priority 2021, published 2024).
Like-named read-outs stand apart in the source and are kept apart here. Marks after values point to notes of the source that are not given here.

Tests used:
radiation dermatitis = settings: topical, applied up to 20 minutes before radiotherapy; cited from earlier work
[1] = test system: alpha2-adrenergic receptors; settings: cited from earlier work
[2] = Method: (§1) Saturated solutions were prepared by adding an excess of drug substance to various solvents and storing the samples in sealed containers for 24 hours at room temperature with continuous stirring.
The majority of the samples were stirred using a magnetic stirrer; however, in the case of viscous samples (such as pure glycerine), the samples were stirred using a rotary mixer. The speed of the rotary mixer was adjusted to ensure proper mixing of the sample, this generally involving slower rotation speeds.
(§2) After the equilibration period, samples were centrifuged or filtered and the brimonidine tartrate was quantified using the Thermo Scientific Dionex U3000 UPLC-UV system. The chromatographic conditions are described below: • Column: Sunfire C18 150 mm×4.6 mm, 3.5 μm • Temperature of column: 40° C. • Volume injected: […] • Flow: 0.8 ml/minute • UV detection: 246 nm

[3] = remark: listed apart in the source
Method: as §1, §2
Saturated solutions were prepared, incubated and measured as described in Example 1.

[4] = value as per literature (ALPHAGAN Product Monograph), conditions not specified, cited from earlier work

CNC[C@H](O)c1ccc(O)c(O)c1 [epinephrine]
patients showing a significant benefit (radiation dermatitis): 50%

Brc1c(NC2=NCCN2)ccc2nccnc12 [Brimonidine]
selectivity for alpha2-adrenergic receptors over alpha1-adrenergic receptors [1]: 1,000 times

brimonidine tartrate
Max solubility ([2]; in ARLASOLVE DMI, 24 hours, room temperature): 0.01 % (w/w)
Max solubility ([2]; in DMSO, visual solubility, UPLC-UV not performed): >8.5*** % (w/w)
Max solubility ([2]; in GLUCAM E10, 24 hours, room temperature): 0.72* % (w/w)
Max solubility ([2]; in GLUCAM E20, 24 hours, room temperature): 0.88* % (w/w)
Max solubility ([2]; in Glycerine (GLY, 20 ml scintillation flask)): 1.61 % (w/w)
Max solubility ([2]; in Hexylene Glycol, 24 hours, room temperature): 0.01 % (w/w)
Max solubility ([2]; in Na Pyrrolidone Carboxylate (AJIDEW L50), 24 hours, room temperature): 0.06 % (w/w)
Max solubility ([2]; in PEG-400, 24 hours, room temperature): 0.10 % (w/w)
Max solubility ([2]; in Propylene Carbonate, 24 hours, room temperature): 0.01** % (w/w)
Max solubility ([2]; in Propylene glycol, measured value): 0.56 % (w/w)
Max solubility ([2]; in TRANSCUTOL, 24 hours, room temperature): 0.05 % (w/w)
Max solubility ([2]; in WATER, measured value): 6.40 % (w/w)
active agent solubilised by non-volatile mixture compared to the aqueous mixture ([3]; PG/PEG-400/GLY/PVP (20:10:5:1) vs PG/PEG-400/GLY/PVP/water (20:10:5:1:40)): approximately 22%
saturation in the aqueous solvent phase of the primary formulation ([3]; concentration of 1% brimonidine tartrate): around 30%
saturation in the aqueous solvent phase of the primary formulation ([3]; concentration of 1.5% brimonidine tartrate): ~50%
Max solubility ([3]; in PG/PEG-400 (20:10)): 0.45 % (w/w)
Max solubility ([3]; in PG/PEG-400/GLY (20:10:5)): 0.66 % (w/w)
Max solubility ([3]; in PG/PEG-400/GLY/PVP (20:10:5:1)): 0.72 % (w/w)
Max solubility ([3]; in PG/PEG-400/GLY/PVP/Water (20:10:5:1:40)): 3.3 % (w/w)
Max solubility ([3]; in PG/PEG-400/PVP (20:10:1)): 0.45 % (w/w)
Max solubility ([4]; in Propylene glycol): ~0.1**** % (w/w)
Max solubility ([4]; in WATER): 3.4**** % (w/w)
